Measurements reported in patent publication US7452887B2, “Quinoline- and isoquinoline-based compounds exhibiting ATP-utilizing enzyme inhibitory activity, and compositions, and uses thereof” (Amphora Discovery Corporation, priority 2004, dated 2008).

How the values were obtained:
CK2 = assay: HTS ATP-utilizing enzyme assay, off-chip mobility-shift (Caliper HTS 250); assay type: biochemical, human; settings: test compound 10 μM, kinase listed = active (greater than six-sigma from the mean activity of inactive compounds)
Excerpt: The following procedures describe the reagent and plate preparation for a HTS of an ATP-utilizing enzyme, such as a protein kinase, run in an off-chip mobility-shift assay format. The following provides an HTS protocol for running a protein kinase HTS screen on a Caliper HTS 250 microfluidics system. The following parameters are dependent on the protein kinase used and can be determined by one skilled in the art as part of a typical assay development process. For example, the peptide substrate used can be identified from the current literature, by screening a peptide library of potential protein kinase substrates, or by other applicable means accepted in the field.
The following table provides typical screen assay parameters appropriate for a Caliper HTS 250 microfluidics system.
The reagents and buffers listed in the following table are generally applicable for developing and running an HTS screen on a human protein kinase using the Caliper HTS 250 system.
The following reagents were prepared using the previously described buffers.
A 2× Master Buffer solution was prepared by combining 200 mL of 1 M HEPES, pH 7.5, 2 mL of 10% Triton X-100, 20 mL of 10% BSA, and 778 mL of H2O.
A 2.5× Substrate Buffer solution was prepared by combining 177.408 mL of 2× Master Buffer, 0.887 mL of 1 mM peptide-X, and 176.521 mL of H2O.
A 1.55× Termination Buffer solution was prepared by combining 762.05 mL of 2× Master Buffer, 95.1 mL of 0.5 M EDTA, and 666.94 mL of H2O. […]
Assays to determine the kinase inhibitory activity of compounds of the present disclosure were performed using a Caliper HTS 250 microfluidics device, Greiner U-bottom assay plates, a Multidrop for transfer of reagents, and Biomek FX (AMNCBM03) software. […] The inhibition of the ATP-utilizing enzyme, such as a particular protein kinase, was determined by measuring the ratio of the peptide substrate to phosphorylated product for each well of the assay plate using the Caliper HTS 250 system. […]

PKA = PKA (Homo sapiens, UniProt P17612); assay: as above; assay type: biochemical; settings: test compound 10 μM, kinase listed = active (greater than six-sigma from the mean activity of inactive compounds)
In short: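 Inhibition is reported from a single 10 μM concentration. Kinase phosphorylates a peptide substrate over 2.5 hrs at 20° C. to 22° C. before EDTA termination. Potential hits are those beyond six-sigma statistical limits.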

Activity (CK2): CK2
Activity (PKA): PKA
Compound: CN1CCN(c2ccc(Nc3ccnc4ccc(-c5ccncc5)cc34)cc2)CC1 [N-(4-(4-methylpiperazin-1-yl)phenyl)-6-(pyridin-4-yl)quinolin-4-amine]
